Source: patent publication US20090131515A1, “Combination of antidiabetic drugs” (SIGMA-TAU INDUSTRIE FARMACEUTICHE RIUNITE S.p.A., priority 2003, published 2009)
Several values for one entry are separate records, joined by “and”; a condition that tells them apart may be missing. Equal values may be shown once. Read-outs that look alike come from different tables or passages of the source.

Assays:
[1] = test system: C57BL/6J mice on a high-fat diet; assay: Blood glucose of C57BL/6J mice on a high-fat diet, postabsorption conditions; assay type: in vivo, mouse; conditions: male C57BL/6J mice on high-fat diet, ST1326 30 mg/kg and metformin 200 mg/kg alone or in combination, twice daily for 15 days, 6 hours after last treatment, mean ± s.e.
Excerpt: (§1) An example is the C57BL/6 mouse, which, as a result of exposure to a high-fat diet, develops not only insulin resistance but also mild hyperglycaemia (Surwit et al., 37: 1163-1167, 1988; Luo et al., Metabolism 47: 663-668,1998).
(§2) The B6. V-Lep ob/ob, C57BL/KsJ db/db and C57BL/6 mice used in the experiments were supplied by Jackson Lab. (via Charles River).
(§3) Blood samples were taken from ob/ob and db/db mice in standard environmental conditions, on a normal diet (4 RF21, Mucedola) and from C57BL/6J mice on a high-fat diet (D-12331, Research Diets) for 3 months, in postabsorption conditions (fasting from 8.30 a.m. to 4.30 p.m.) from the caudal vein, with the aid of a Jelco 22G catheter (Johnson and Johnson).
(§4) The mice were treated orally twice daily (at 8.30 a.m. and 6.30 p.m.) with ST1326 at the dose of 30 mg/kg and with metformin at the dose of 200 mg/kg, alone or in combination.
(§5) Blood samples were taken on various different days after administration of the products and in different nutritional conditions for the serum glucose determinations, OGTT (Oral Glucose Tolerance Test) and IST (Insulin Suppression Test: Fujita et al., Diabetes 32: 804-810, 1983; Meglasson et al., J. Pharm. Exp. Therap. 266: 1454-1462, 1993; Luo et al., J. Pharm. Exp. Therap. 288: 529-534, 1999).

[2] = test system: C57BL/6 mice on a high-fat diet; assay: Oral Glucose Tolerance Test (OGTT) in C57BL/6 mice on a high-fat diet; assay type: in vivo, mouse; conditions: male C57BL/6 mice on high-fat diet; for Blood glucose in the OGTT, 0 min: ST1326 30 mg/kg and metformin 200 mg/kg alone or in combination, twice daily for 35 days, postabsorption, 6 hours after last treatment; for Blood glucose in the OGTT, 30 min / Blood glucose in the OGTT, 60 min / Blood glucose in the OGTT, 120 min / Blood glucose in the OGTT, AUC: same treatment for 35 days; for Blood glucose in the OGTT, 30 min: 30 min after glucose loading; for Blood glucose in the OGTT, 60 min: 60 min after glucose loading; for Blood glucose in the OGTT, 120 min: 120 min after glucose loading; for Blood glucose in the OGTT, AUC: AUC 0-120 min
Excerpt: as §1, §2, §3, §4, §5
(§6) In the OGTT, blood samples were taken 0, 30, 60 and 120 minutes after glucose loading (3 g/kg).

ob/ob mice [3] = assay: Insulin Suppression Test (IST), blood glucose of ob/ob mice; assay type: in vivo, mouse; conditions: for Blood glucose levels in the IST: male ob/ob mice, postabsorption, 8 hours after last treatment, mean ± s.e.; for Reduction of hyperglycaemia in the IST: ob/ob mouse
Excerpt: as §2, §3, §4, §5
In the IST, blood samples were taken 60 min after subcutaneous loading of glucose (3 g/kg), insulin (Humulin R., Lilly 2 U/kg) and somatostatin (0.5 mg/kg).

type 2 diabetes patients = conditions: cited from earlier work
db/db mice [4] = assay: Blood glucose of db/db mice in postabsorption conditions, ST1326 and metformin alone or in combination; assay type: in vivo, mouse; conditions: male db/db mice, ST1326 30 mg/kg and metformin 200 mg/kg alone or in combination, twice daily for 16 days, 6 hours after last treatment, mean ± s.e.
Excerpt: as §2, §3, §4, §5

KKAy mouse = conditions: cited from earlier work
db/db mice [5] = assay: Oral Glucose Tolerance Test (OGTT) in db/db mice; assay type: in vivo, mouse; conditions: male db/db mice, fasting overnight; for Blood glucose in the OGTT, 0 min: ST1326 30 mg/kg and metformin 200 mg/kg alone or in combination, twice daily for 37 days, 15 hours after last treatment; for Blood glucose in the OGTT, 30 min / Blood glucose in the OGTT, 60 min / Blood glucose in the OGTT, 120 min / Blood glucose in the OGTT, AUC: same treatment for 37 days; for Blood glucose in the OGTT, 30 min: 30 min after glucose loading; for Blood glucose in the OGTT, 60 min: 60 min after glucose loading; for Blood glucose in the OGTT, 120 min: 120 min after glucose loading; for Blood glucose in the OGTT, AUC: AUC 0-120 min
Excerpt: as §2, §3, §4, §5, §6

ob/ob mice [6] = assay: Blood glucose of ob/ob mice in feeding conditions; assay type: in vivo, mouse; conditions: male ob/ob mice, ST1326 30 mg/kg and metformin 200 mg/kg alone or in combination, twice daily for 11 days, 15 hours after last treatment, mean ± s.e.
Excerpt: as §2, §3, §4, §5

db/db mice [7] = assay: Serum glucose of db/db mice treated with ST1326 for 45 days, postabsorption conditions; assay type: in vivo, mouse; conditions: for Lowering serum glucose: db/db mice; for Serum glucose levels: male db/db mice, postabsorption, 8 hours after last treatment, mean ± s.e.
Excerpt: as §2, §3

[8] = ST1326 30 mg/kg and metformin 200 mg/kg alone or in combination, twice daily for 18 days

| Structure (SMILES) | Blood glucose levels [1] | Blood glucose in the OGTT, 0 min [2] | Blood glucose in the OGTT, 30 min [2] | Blood glucose in the OGTT, 60 min [2] | Blood glucose in the OGTT, 120 min [2] | Blood glucose in the OGTT, AUC [2] | Blood glucose levels in the IST (ob/ob mice [3]; [8]) | Blood glucose levels (db/db mice [4]) | Blood glucose in the OGTT, 0 min (db/db mice [5]) | Blood glucose in the OGTT, 30 min (db/db mice [5]) | Blood glucose in the OGTT, 60 min (db/db mice [5]) | Blood glucose in the OGTT, 120 min (db/db mice [5]) | Blood glucose in the OGTT, AUC (db/db mice [5]) | also measured |
| --- | --- | --- | --- | --- | --- | --- | --- | --- | --- | --- | --- | --- | --- | --- |
| CN(C)C(=N)N=C(N)N [METFORMIN, metformin] | 146.1 ± 9.2 mg/dL | 141.1 ± 11.4 mg/dL | 241.2 ± 18.9 mg/dL | 212.3 ± 5.0 mg/dL | 186.2 ± 15.1 mg/dL | 24500 ± 1180 mg·min/dL | 433.7 ± 34.8 mg/dL | 337.8 ± 33.1 mg/dL | 195.5 ± 21.5 mg/dL | 530.9 ± 34.6 mg/dL | 456.8 ± 52.4 mg/dL | 344.4 ± 40.9 mg/dL | 49700 ± 4720 mg·min/dL | Blood glucose levels in the IST (ob/ob mice [3]; oral metformin 300 mg/kg twice daily for 8 days): 412.1 ± 3.5 □ mg/dl; Reduction of hyperglycaemia in the IST (ob/ob mice [3]; 200 mg/kg/day): ineffective; Reduction of hyperglycaemia in the IST (ob/ob mice [3]; 600 mg/kg/day): 22%; Reduction of hyperglycaemia (type 2 diabetes patients; in combination with sulphonylureas): 25%; Reduction of hyperglycaemia (type 2 diabetes patients; monotherapy after the failure of diet and physical exercise): 20% and 13-37%; Incidence of diarrhoea, nausea and gastrointestinal disorders (type 2 diabetes patients; patients on metformin): approximately 20%; Reduction of hyperglycaemia (KKAy mouse; 200 mg/kg/day): ineffective; Reduction of hyperglycaemia (KKAy mouse; 900 mg/kg/day): 50% |
| CCCCCCCCCCCCCCNC(=O)N[C@H](CC(=O)[O-])C[N+](C)(C)C [ST1326, R-4-trimethylammonio-3-(tetradecylcarbamoyl)-amino-butyrate] | 167.3 ± 4.7 mg/dL | 156.0 ± 7.8 mg/dL | 236.3 ± 11.2 mg/dL | 207.0 ± 9.9 mg/dL | 212.9 ± 8.6 mg/dL | 25100 ± 652 mg·min/dL | 524.2 ± 56.2 mg/dL | 370.7 ± 30.0 mg/dL | 175.3 ± 25.6 mg/dL | 557.2 ± 30.6 mg/dL | 498.3 ± 23.5 mg/dL | 284.6 ± 20.8 mg/dL | 50300 ± 2430 mg·min/dL | Blood glucose levels (ob/ob mice [6]): 394.8 ± 25.7 mg/dL; Lowering serum glucose (db/db mice [7]; dose of 40 mg/kg/day): inactive; Lowering serum glucose (db/db mice [7]; dose of 100 mg/kg/day): effective; Serum glucose levels (db/db mice [7]; oral 20 mg/kg twice daily for 45 days): 562 ± 40 mg/dL; Serum glucose levels (db/db mice [7]; oral 50 mg/kg twice daily for 45 days): 350 ± 48 Δ mg/dl |
